Source: the supplement of paper PMC10307832

Assays:
Assay in all cases: relative viability (nuclei count vs DMSO), 5 days (fraction); higher = more cells survive
Tosedostat + Pemetrexed = compound: CC(C)C[C@@H](C(=O)N[C@H](C(=O)OC1CCCC1)c1ccccc1)[C@H](O)C(=O)NO [Tosedostat] + Nc1nc2[nH]cc(CCc3ccc(C(=O)N[C@@H](CCC(=O)O)C(=O)O)cc3)c2c(=O)[nH]1 [Pemetrexed] (partner 0.2 µM)
In short: (§1)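 Lung cancer cell lines in 1536-well plates were dosed by pin tool the day after seeding, either with one drug alone or with a fixed anchor-drug dose plus five library-drug doses (not always all listed) in √10 steps. After 5 days, cells were fixed and their nuclei stained in one step (final 0.05% Triton X-100, 1% formaldehyde, 1 ug/ml Hoechst), then counted on 4× images. Relative viability is the nuclei count in treated wells divided by that in vehicle wells. Values are medians of duplicate plates.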

[1] = compound: CC1=NN=C(O1)C2=NN=C(C=C2)N3CCC(CC3)OC4=C(C=CC(=C4)F)Cl + CC(=O)Nc1cccc(-n2c(=O)n(C3CC3)c(=O)c3c(Nc4ccc(I)cc4F)n(C)c(=O)c(C)c32)c1 [Trametinib] (partner 0.02 µM)
In short: as §1

[2] = compound: CC1=NN=C(O1)C2=NN=C(C=C2)N3CCC(CC3)OC4=C(C=CC(=C4)F)Cl + COc1cc2c(Oc3ccc(NC(=O)C4(C(=O)Nc5ccc(F)cc5)CC4)cc3F)ccnc2cc1OCCCN1CCOCC1 [Foretinib] (partner 0.25 µM)
In short: as §1

[3] = compound: CC1=NN=C(O1)C2=NN=C(C=C2)N3CCC(CC3)OC4=C(C=CC(=C4)F)Cl + Nc1nc2[nH]cc(CCc3ccc(C(=O)N[C@@H](CCC(=O)O)C(=O)O)cc3)c2c(=O)[nH]1 [Pemetrexed] (partner 0.2 µM)
In short: as §1

SK-MES-1
relative viability (Tosedostat + Pemetrexed; first compound 0.02 µM): 1.01
relative viability (Tosedostat + Pemetrexed; first compound 0.06325 µM): 1
relative viability (Tosedostat + Pemetrexed; first compound 0.2 µM): 1.11
relative viability (Tosedostat + Pemetrexed; first compound 0.6325 µM): 1.14
relative viability (Tosedostat + Pemetrexed; first compound 2 µM): 0.993
relative viability ([1]; first compound 0.253 µM): 0.486
relative viability ([1]; first compound 0.8 µM): 0.573
relative viability ([1]; first compound 2.53 µM): 0.507
relative viability ([1]; first compound 8 µM): 0.501
relative viability ([2]; first compound 0.253 µM): 0.824
relative viability ([2]; first compound 0.8 µM): 0.835
relative viability ([2]; first compound 2.53 µM): 0.939
relative viability ([2]; first compound 8 µM): 0.855
relative viability ([3]; first compound 0.253 µM): 0.681
relative viability ([3]; first compound 0.8 µM): 0.853
relative viability ([3]; first compound 2.53 µM): 0.828
relative viability ([3]; first compound 8 µM): 0.628

NCI-H596
relative viability (Tosedostat + Pemetrexed; first compound 0.02 µM): 0.468
relative viability (Tosedostat + Pemetrexed; first compound 0.06325 µM): 0.488
relative viability (Tosedostat + Pemetrexed; first compound 0.2 µM): 0.515
relative viability (Tosedostat + Pemetrexed; first compound 0.6325 µM): 0.497
relative viability (Tosedostat + Pemetrexed; first compound 2 µM): 0.45
relative viability ([1]; first compound 0.253 µM): 0.687
relative viability ([1]; first compound 0.8 µM): 0.811
relative viability ([1]; first compound 2.53 µM): 0.714
relative viability ([1]; first compound 8 µM): 0.692
relative viability ([2]; first compound 0.253 µM): 0.71
relative viability ([2]; first compound 0.8 µM): 0.751
relative viability ([2]; first compound 2.53 µM): 0.837
relative viability ([2]; first compound 8 µM): 0.682
relative viability ([3]; first compound 0.253 µM): 0.52
relative viability ([3]; first compound 0.8 µM): 0.494
relative viability ([3]; first compound 2.53 µM): 0.476
relative viability ([3]; first compound 8 µM): 0.394

RERF-LC-KJ
relative viability (Tosedostat + Pemetrexed; first compound 0.02 µM): 0.49
relative viability (Tosedostat + Pemetrexed; first compound 0.06325 µM): 0.499
relative viability (Tosedostat + Pemetrexed; first compound 0.2 µM): 0.51
relative viability (Tosedostat + Pemetrexed; first compound 0.6325 µM): 0.486
relative viability (Tosedostat + Pemetrexed; first compound 2 µM): 0.466
relative viability ([1]; first compound 0.253 µM): 0.665
relative viability ([1]; first compound 0.8 µM): 0.593
relative viability ([1]; first compound 2.53 µM): 0.595
relative viability ([1]; first compound 8 µM): 0.612
relative viability ([2]; first compound 0.253 µM): 0.617
relative viability ([2]; first compound 0.8 µM): 0.533
relative viability ([2]; first compound 2.53 µM): 0.544
relative viability ([2]; first compound 8 µM): 0.519
relative viability ([3]; first compound 0.253 µM): 0.446
relative viability ([3]; first compound 0.8 µM): 0.43
relative viability ([3]; first compound 2.53 µM): 0.438
relative viability ([3]; first compound 8 µM): 0.455

LOU-NH91
relative viability (Tosedostat + Pemetrexed; first compound 0.02 µM): 0.394
relative viability (Tosedostat + Pemetrexed; first compound 0.06325 µM): 0.478
relative viability (Tosedostat + Pemetrexed; first compound 0.2 µM): 0.447
relative viability (Tosedostat + Pemetrexed; first compound 0.6325 µM): 0.487
relative viability (Tosedostat + Pemetrexed; first compound 2 µM): 0.444
relative viability ([1]; first compound 0.8 µM): 0.722
relative viability ([1]; first compound 2.53 µM): 0.744
relative viability ([1]; first compound 8 µM): 0.77
relative viability ([2]; first compound 0.253 µM): 0.896
relative viability ([2]; first compound 0.8 µM): 0.847
relative viability ([2]; first compound 2.53 µM): 0.927
relative viability ([2]; first compound 8 µM): 0.9
relative viability ([3]; first compound 0.8 µM): 0.386
relative viability ([3]; first compound 2.53 µM): 0.394
relative viability ([3]; first compound 8 µM): 0.424

NCI-H1623
relative viability ([2]; first compound 0.253 µM): 0.717
relative viability ([2]; first compound 0.8 µM): 0.669
relative viability ([2]; first compound 2.53 µM): 0.771
relative viability ([2]; first compound 8 µM): 0.781

Calu-6
relative viability ([2]; first compound 0.253 µM): 0.602
relative viability ([2]; first compound 0.8 µM): 0.597
relative viability ([2]; first compound 2.53 µM): 0.517
relative viability ([2]; first compound 8 µM): 0.573

LC-2-ad
relative viability (Tosedostat + Pemetrexed; first compound 0.02 µM): 0.299
relative viability (Tosedostat + Pemetrexed; first compound 0.06325 µM): 0.303
relative viability (Tosedostat + Pemetrexed; first compound 0.2 µM): 0.289
relative viability (Tosedostat + Pemetrexed; first compound 0.6325 µM): 0.277
relative viability (Tosedostat + Pemetrexed; first compound 2 µM): 0.251
relative viability ([1]; first compound 0.253 µM): 0.369
relative viability ([1]; first compound 0.8 µM): 0.35
relative viability ([1]; first compound 2.53 µM): 0.349
relative viability ([1]; first compound 8 µM): 0.328
relative viability ([2]; first compound 0.253 µM): 0.66
relative viability ([2]; first compound 0.8 µM): 0.634
relative viability ([2]; first compound 2.53 µM): 0.623
relative viability ([2]; first compound 8 µM): 0.507
relative viability ([3]; first compound 0.253 µM): 0.267
relative viability ([3]; first compound 0.8 µM): 0.27
relative viability ([3]; first compound 2.53 µM): 0.282
relative viability ([3]; first compound 8 µM): 0.239

CAL-12T
relative viability (Tosedostat + Pemetrexed; first compound 0.02 µM): 1.19
relative viability (Tosedostat + Pemetrexed; first compound 0.06325 µM): 1.3
relative viability (Tosedostat + Pemetrexed; first compound 0.2 µM): 1.24
relative viability (Tosedostat + Pemetrexed; first compound 0.6325 µM): 1.26
relative viability (Tosedostat + Pemetrexed; first compound 2 µM): 1.02
relative viability ([1]; first compound 0.253 µM): 0.337
relative viability ([1]; first compound 0.8 µM): 0.313
relative viability ([1]; first compound 2.53 µM): 0.255
relative viability ([1]; first compound 8 µM): 0.217
relative viability ([2]; first compound 0.253 µM): 0.965
relative viability ([2]; first compound 0.8 µM): 0.964
relative viability ([2]; first compound 2.53 µM): 0.879
relative viability ([2]; first compound 8 µM): 0.777
relative viability ([3]; first compound 0.253 µM): 0.946
relative viability ([3]; first compound 0.8 µM): 1.05
relative viability ([3]; first compound 2.53 µM): 1.03
relative viability ([3]; first compound 8 µM): 0.9

NCI-H1650
relative viability (Tosedostat + Pemetrexed; first compound 0.02 µM): 0.416
relative viability (Tosedostat + Pemetrexed; first compound 0.06325 µM): 0.392
relative viability (Tosedostat + Pemetrexed; first compound 0.2 µM): 0.413
relative viability (Tosedostat + Pemetrexed; first compound 0.6325 µM): 0.475
relative viability (Tosedostat + Pemetrexed; first compound 2 µM): 0.526
relative viability ([1]; first compound 0.253 µM): 0.352
relative viability ([1]; first compound 0.8 µM): 0.482
relative viability ([1]; first compound 2.53 µM): 0.481
relative viability ([1]; first compound 8 µM): 0.49
relative viability ([2]; first compound 0.8 µM): 0.928
relative viability ([2]; first compound 2.53 µM): 0.998
relative viability ([2]; first compound 8 µM): 0.852
relative viability ([3]; first compound 0.253 µM): 0.317
relative viability ([3]; first compound 0.8 µM): 0.349
relative viability ([3]; first compound 2.53 µM): 0.33
relative viability ([3]; first compound 8 µM): 0.343

NCI-H1703
relative viability ([2]; first compound 0.8 µM): 0.438
relative viability ([2]; first compound 2.53 µM): 0.394
relative viability ([2]; first compound 8 µM): 0.478

BEN
relative viability (Tosedostat + Pemetrexed; first compound 0.02 µM): 0.845
relative viability (Tosedostat + Pemetrexed; first compound 0.06325 µM): 0.893
relative viability (Tosedostat + Pemetrexed; first compound 0.2 µM): 0.997
relative viability (Tosedostat + Pemetrexed; first compound 0.6325 µM): 1.2
relative viability (Tosedostat + Pemetrexed; first compound 2 µM): 1.06
relative viability ([1]; first compound 0.253 µM): 1.1
relative viability ([1]; first compound 0.8 µM): 1.12
relative viability ([1]; first compound 2.53 µM): 1.03
relative viability ([1]; first compound 8 µM): 1.17
relative viability ([2]; first compound 0.253 µM): 0.679
relative viability ([2]; first compound 0.8 µM): 0.7
relative viability ([2]; first compound 2.53 µM): 0.665
relative viability ([2]; first compound 8 µM): 0.541
relative viability ([3]; first compound 0.253 µM): 0.736
relative viability ([3]; first compound 0.8 µM): 0.84
relative viability ([3]; first compound 2.53 µM): 0.806
relative viability ([3]; first compound 8 µM): 0.741

EMC-BAC-2
relative viability (Tosedostat + Pemetrexed; first compound 0.02 µM): 0.453
relative viability (Tosedostat + Pemetrexed; first compound 0.06325 µM): 0.463
relative viability (Tosedostat + Pemetrexed; first compound 0.2 µM): 0.582
relative viability (Tosedostat + Pemetrexed; first compound 0.6325 µM): 0.626
relative viability (Tosedostat + Pemetrexed; first compound 2 µM): 0.655
relative viability ([1]; first compound 0.253 µM): 0.873
relative viability ([1]; first compound 0.8 µM): 0.736
relative viability ([1]; first compound 2.53 µM): 0.791
relative viability ([1]; first compound 8 µM): 0.65
relative viability ([2]; first compound 0.253 µM): 0.968
relative viability ([2]; first compound 0.8 µM): 0.95
relative viability ([2]; first compound 2.53 µM): 0.89
relative viability ([2]; first compound 8 µM): 0.98
relative viability ([3]; first compound 0.253 µM): 0.452
relative viability ([3]; first compound 0.8 µM): 0.419
relative viability ([3]; first compound 2.53 µM): 0.485
relative viability ([3]; first compound 8 µM): 0.527
